Assay results published in publication PMC11357256, “Selectivity Screening and Structure–Cytotoxic Activity Observations of Selected Oleanolic Acid (OA)-Type Saponins from the Amaranthaceae Family on a Wiade Panel of Human Cancer Cell Lines” (Molecules, 2024).

What was measured:
[1] = tested on: FTC133; experiment: MTT cell viability assay, FTC133 follicular thyroid carcinoma cells; format: cell-based, human; details: for IC50: Homo sapiens, FTC-133
Excerpt: (§1) Cell lines used in the study were grouped as follows: skin panel (melanomas: HTB140, derived from metastatic site: lymph node, ATCC Hs 294 T; malignant A375, ATCC CRL-1619; stage I primary WM793, RRID:CVCL 8787; skin keratinocytes HaCaT); prostate panel (prostate carcinomas: Du145, derived from metastatic site: brain, ATCC HTB-81; grade IV PC3, derived from metastatic site: bone, ATCC CRL-1435, LNCaP, derived from the metastatic site: lymph node, ATCC CRL-1740; prostate epithelial, PNT2, ECACC 95012613); gastrointestinal panel (colorectal adenocarcinomas: Caco2, ATCC HTB-37, HT29, ATCC HTB-38, DLD-1, ATCC CCL-221, HCT116, ATCC CCL-247, and colon epithelial cells CCD 841 CoN, ATCC CRL-1790; hepatocellular carcinoma HepG2, ATCC HB-8065); thyroid panel (follicular thyroid carcinoma FTC133, ECACC 9406090, undifferentiated thyroid carcinoma 8505C, ECACC 94090184, papillary thyroid carcinoma TPC-1, SCC147, normal thyroid follicular epithelial Nthy-ori 3–1, ECACC 90011609); and breast panel (ER-positive breast adenocarcinoma MCF7, ATCC HTB-22; ER-negative breast adenocarcinoma MDA-MB-231, ATCC HTB-26; breast epithelial MCF10A, ATCC CRL-10317). Cells were grown under standard conditions (37 °C, 5% CO2, relative humidity), and culture media (DMEM/F12 for PNT2, WM 793, HT29, PC3, FTC133, 8505 C, MDA-MB-231, TPC-1; DMEM Low Glucose for DU145; DMEM High Glucose for HTB140, A375, HaCaT; MEM with NEAA for Caco2 and MCF7; RPMI1640 with sodium pyruvate for LNCaP; DMEM/F12 with 20 ng/mL epidermal growth factor (EGF), 10 μg/mL insulin, 0.5 μg/mL hydrocortisone, 100 ng/mL cholera toxin) for MCF10A) supplemented with 10% fetal bovine serum (FBS) or 5% donor horse serum for MCF10A, and 1% antibiotics solution (10,000 U penicillin and 10 mg streptomycin/mL) […], as previously described. All cell lines, culture media, and supplements were from Sigma-Aldrich (Germany).
(§2) The cells were seeded in 96-well plates (1.5 × 10^4 cells/well). After 24 h, fresh medium was added, containing the tested compounds (0.5–100 μg/mL) and incubated for 24 or 48 h. Cell viability was determined by MTT assay, according to the manufacturer’s instructions, as described previously. Each experiment was performed in triplicate. The absorbance was measured at 570 nm using a Biotek Synergy microplate reader (BioTek Instruments Inc., Winooski, VT, USA). Cell viability was expressed as a percent of control (untreated cells). Doxorubicin was used as a reference drug.
(§3) The selectivity index (SI) was calculated from the following formula:SI = IC50 of compound in a normal cell line/IC50 of compound in cancer cell line.IC50, half maximal inhibitory concentration, is a concentration required to kill 50% of the cells.

[2] = tested on: Caco-2; experiment: MTT cell viability assay, Caco-2 colon cancer cells; format: cell-based; details: Homo sapiens
Excerpt: as §1, §2

[3] = tested on: Du-145; experiment: MTT cell viability assay, Du-145 prostate carcinoma cells; format: cell-based; details: Homo sapiens
Excerpt: as §1, §2

[4] = tested on: HTB-140; experiment: MTT cell viability assay, HTB-140 metastatic melanoma cells; format: cell-based, human; details: for IC50: Homo sapiens
Excerpt: as §1, §2, §3

[5] = tested on: HCT116; experiment: MTT cell viability assay, HCT116 colon cancer cells; format: cell-based; details: Homo sapiens, HCT-116
Excerpt: as §1, §2

[6] = tested on: LNCaP; experiment: MTT cell viability assay, LNCaP prostate adenocarcinoma cells; format: cell-based; details: Homo sapiens
Excerpt: as §1, §2

[7] = tested on: Nthy-ori 3-1; experiment: MTT cell viability assay, Nthy-ori 3-1 normal thyroid epithelial cells; format: cell-based; details: Homo sapiens
Excerpt: as §1, §2

[8] = tested on: 8505C; experiment: MTT cell viability assay, 8505C undifferentiated thyroid carcinoma cells; format: cell-based, human; details: Homo sapiens, 8505C
Excerpt: as §1, §2, §3

[9] = tested on: MCF10A; experiment: MTT cell viability assay, MCF10A normal breast epithelial cells; format: cell-based; details: Homo sapiens, MCF-10A
Excerpt: as §1, §2

[10] = tested on: A375; experiment: MTT cell viability assay, A375 malignant melanoma cells; format: cell-based, human; details: for IC50: Homo sapiens, A-375
Excerpt: as §1, §2, §3

[11] = tested on: CCD 841 CoN; experiment: MTT cell viability assay, CCD 841 CoN normal colon epithelial cells; format: cell-based; details: Homo sapiens
Excerpt: as §1, §2

[12] = tested on: HT29; experiment: MTT cell viability assay, HT29 colorectal adenocarcinoma cells; format: cell-based; details: Homo sapiens, HT-29
Excerpt: as §1, §2

[13] = tested on: PNT2; experiment: MTT cell viability assay, PNT2 normal prostate epithelial cells; format: cell-based; details: Homo sapiens
Excerpt: as §1, §2

[14] = tested on: MCF7; experiment: MTT cell viability assay, MCF7 breast adenocarcinoma cells; format: cell-based; details: Homo sapiens
Excerpt: as §1, §2

[15] = tested on: WM793; experiment: MTT cell viability assay, WM793 primary melanoma cells; format: cell-based, human; details: for IC50: Homo sapiens
Excerpt: as §1, §2, §3

[16] = tested on: HepG2; experiment: MTT cell viability assay, HepG2 hepatocellular carcinoma cells; format: cell-based; details: Homo sapiens
Excerpt: as §1, §2

[17] = tested on: PC3; experiment: MTT cell viability assay, PC3 prostate carcinoma cells; format: cell-based; details: Homo sapiens, PC-3
Excerpt: as §1, §2

[18] = tested on: TPC-1; experiment: MTT cell viability assay, TPC-1 papillary thyroid carcinoma cells; format: cell-based, human; details: for IC50: Homo sapiens, TPC1
Excerpt: as §1, §2, §3

[19] = tested on: MDA-MB-231; experiment: MTT cell viability assay, MDA-MB-231 breast adenocarcinoma cells; format: cell-based; details: Homo sapiens
Excerpt: as §1, §2

[20] = tested on: HaCaT; experiment: MTT cell viability assay, HaCaT keratinocytes; format: cell-based; details: Homo sapiens
Excerpt: as §1, §2

[21] = tested on: DLD-1; experiment: MTT cell viability assay, DLD-1 colon cancer cells; format: cell-based; details: Homo sapiens
Excerpt: as §1, §2

CC1(C)CC[C@]2(C(=O)O[C@@H]3O[C@H](CO)[C@@H](O)[C@H](O)[C@H]3O)CC[C@]3(C)C(=CC[C@@H]4[C@@]5(C)CC[C@H](O[C@@H]6O[C@H](C(=O)O)[C@@H](O)[C@H](O)[C@H]6O)C(C)(C)[C@@H]5CC[C@]43C)[C@@H]2C1 [ChIVa, 3-O-β-D-glucuronopyranosyl oleanolic acid 28-O-β-D-glucopyranosyl ester]
IC50 ([1]; FTC133, 24 h): 8.5 µg/mL
IC50 ([1]; FTC133, 48 h): 4 µg/mL
Selectivity Index (SI) ([1]; IC50 Nthy-ori 3-1 / IC50 FTC133, 24 h): > 11.76
Selectivity Index (SI) ([1]; IC50 Nthy-ori 3-1 / IC50 FTC133, 48 h): > 25.1
IC50 ([2]; Caco-2, 24 h): 69 µg/mL
IC50 ([2]; Caco-2, 48 h): 15.8 µg/mL
IC50 ([3]; DU-145, 24 h): 22.9 µg/mL
IC50 ([3]; DU-145, 48 h): 9.1 µg/mL
IC50 ([4]; HTB-140, 24 h): 15 µg/mL
IC50 ([4]; HTB-140, 48 h): 8.7 µg/mL
Selectivity Index (SI) ([4]; IC50 HaCaT / IC50 HTB-140, 24 h): 0.5
Selectivity Index (SI) ([4]; IC50 HaCaT / IC50 HTB-140, 48 h): 0.4
IC50 ([5]; HCT116, 24 h): > 100 µg/mL
IC50 ([5]; HCT116, 48 h): 78.2 µg/mL
IC50 ([6]; 24 h): > 100 µg/mL
IC50 ([6]; 48 h): > 100 µg/mL
IC50 ([7]; 24 h): > 100 µg/mL
IC50 ([7]; 48 h): > 100 µg/mL
IC50 ([8]; 24 h): > 100 µg/mL
IC50 ([8]; 48 h): > 100 µg/mL
IC50 ([9]; 24 h): > 100 µg/mL
IC50 ([9]; 48 h): > 100 µg/mL
IC50 ([10]; A375, 24 h): 1.6 µg/mL
IC50 ([10]; A375, 48 h): 0.6 µg/mL
Selectivity Index (SI) ([10]; IC50 HaCaT / IC50 A375, 24 h): 4.6
IC50 ([11]; 24 h): > 100 µg/mL
IC50 ([11]; 48 h): > 100 µg/mL
IC50 ([12]; HT29, 24 h): 14.9 µg/mL
IC50 ([12]; HT29, 48 h): 5.6 µg/mL
IC50 ([13]; 24 h): > 100 µg/mL
IC50 ([13]; 48 h): > 100 µg/mL
IC50 ([14]; MCF7, 24 h): > 100 µg/mL
IC50 ([14]; MCF7, 48 h): > 100 µg/mL
IC50 ([14]; MCF7, MCF-7, incubation time not stated): > 100 µg/mL
IC50 ([15]; WM793, 24 h): 18.5 µg/mL
IC50 ([15]; WM793, 48 h): 4.4 µg/mL
Selectivity Index (SI) ([15]; IC50 HaCaT / IC50 WM793, 24 h): 0.4
Selectivity Index (SI) ([15]; IC50 HaCaT / IC50 WM793, 48 h): 0.7
IC50 ([16]; HepG2, 24 h): 30 µg/mL
IC50 ([16]; HepG2, 48 h): 20.9 µg/mL
IC50 ([17]; PC3, 24 h): 45.6 µg/mL
IC50 ([17]; PC3, 48 h): 22.8 µg/mL
IC50 ([18]; TPC-1, 24 h): > 100 µg/mL
IC50 ([18]; TPC-1, 48 h): 81.8 µg/mL
Selectivity Index (SI) ([18]; IC50 Nthy-ori 3-1 / IC50 TPC-1, 48 h): > 1.2
IC50 ([19]; MDA-MB-231, 24 h): > 100 µg/mL
IC50 ([19]; MDA-MB-231, 48 h): 98.1 µg/mL
IC50 ([20]; 24 h): 7.3 µg/mL
IC50 ([20]; 48 h): 3.1 µg/mL
IC50 ([21]; DLD-1, 24 h): > 100 µg/mL
IC50 ([21]; DLD-1, 48 h): 50.3 µg/mL
